Results from US7979117B2, “Device and method for controlled delivery of active substance into the skin” (Power Paper Ltd., priority 2001, dated 2011).
Several values for one entry are separate records, joined by “and”; a condition that tells them apart may be missing. Equal values may be shown once.

Experiment: Dual chamber in-vitro skin penetration test (iontophoresis vs passive)
Type: in vitro ADME, Porcine
Description: One type of skin penetration test can be implemented in-vitro by using excised swine skin membrane with two electrodes placed thereon, with one of the two being associated with a formulation including an active substance to be delivered by iontophoresis, as described, for example in: P. Glikfeld, C. Cullander, R. S. Hinz, and R. H. Guy, A new system for in vitro studies of iontophoresis, Pharm. Res. 5: 443-446 (1988) (hereinafter, the “dual chamber in-vitro test”). Description of the experimental design of an in-vitro skin penetration test is provided in Example No. 1. In a non-limiting way, any of the following parameters can be varied and tested with this model: voltage, current and current density, concentration of an active substance, pH, viscosity, concentration of a buffer, concentration of an electrolyte, concentration of a polymeric substance which is used to render certain rheological properties, conductivity, viscosity and adhesiveness. The influence of pore size and density of a substrate can also be assessed in a modified in-vitro skin penetration test. Delivery of the active substance into and through the skin will be determined as a function of the time of current passage.
Example No. 1 was devised to define, in a preclinical study, the optimal iontophoretic parameters for the delivery of an active substance contained in a cosmetic carrier into the skin, while minimizing systemic exposure.
In general, the active agent is formulated in a buffered, conducting solution, gel, cream, or any other optional cosmetically acceptable carrier. Competing ions are kept to a minimum. Iontophoresis is performed in vertical diffusion cells, in which the skin membrane separates the physically- and electrically-isolated anode and cathode chambers from the receptor phase, or in modified side-by-side cells of a newer design. The anode and receptor compartments contain physiologically-buffered saline at pH 7, while the cathode compartment is charged with the gel containing the active.
The skin membrane is from the porcine ear (Alternatively, human (cadaver) or nude mouse skin can be used). The skin is excised with a dermatome set to an approximate depth of 500 μm. The area of skin exposed in each electrode compartment is 0.64 cm^2.
The electrodes transmitting the electrical current are made of Ag/AgCl or graphite, prepared in a customary fashion. A constant current is passed between the electrodes and controlled by a custom-built power supply (Professional Design and Development Services, Berkeley, Calif.).
In each study, preparation, with electrical current (“Iontophoretic System”) and without electrical current (“Control”), are tested. Exposure period is 20-30 minutes. Six replicates are performed per experiment. Prior to each experiment, the viability and integrity of skin barrier function is checked via a measurement of transepidermal water loss (TEWL).
At the end of the exposure period, the entire receptor compartment is drained and the solution reserved for subsequent analysis of the active agent(s) (“Active”). The skin is removed, and the surfaces carefully cleaned and dried. Subsequently, the stratum corneum (“SC”) beneath the cathode chamber is removed by repeated 15 adhesive tape strippings (“TS”). The Active is extracted from the respective tapes and assayed to yield a total uptake of the compound into the SC. The remaining SC-stripped skin from beneath the cathode is then appropriately treated so as to recover the Active, which had crossed the SC barrier, during iontophoresis, and reached into the underlying epidermis/upper dermis. The Active is determined quantitatively using customary analytical procedures (e.g., HPLC, UV spectrum, GC, radiolabeled detection, etc.), as applicable.
Results of an In-Vitro Skin Penetration Test for Magnesium Ascorbyl Phosphate (MAP) Aqueous Solution, Using the “Dual Chamber In-Vitro Test”
Active Substance: Magnesium Ascorbyl Phosphate (MAP) (Vitamin C Derivative) […]

[1] = Iontophoretic System, 3% in distilled water, 25 mg applied, pH 7.0-7.4, 0.150 mA/cm^2, 30 minutes, individual cell
[2] = Iontophoretic System, 3%, 0.150 mA/cm^2, 30 minutes, Mean of 6 cells
[3] = Passive Control (without electrical current)

## O=C1O[C@H]([C@@H](O)CO)C([O-])=C1OP(=O)([O-])[O-].O=C1O[C@H]([C@@H](O)CO)C([O-])=C1OP(=O)([O-])[O-].[Mg+2].[Mg+2].[Mg+2] [MAP, Magnesium Ascorbyl Phosphate]
[1]
  Amount of Active, Receptor: 47.66 µg and 122.75 µg and 14.62 µg and 23.47 µg and 24.99 µg and 25.43 µg
  Amount of Active, TS # 1, 2: 92.41 µg and 50.37 µg and 103.88 µg and 132.28 µg and 48.43 µg and 89.89 µg
  Amount of Active, TS # 3-15: 89.22 µg and 2.94 µg and 115.27 µg and 43.90 µg and 8.71 µg and 50.43 µg
  Amount of Active, TS Total: 181.63 µg and 53.31 µg and 219.15 µg and 176.18 µg and 57.14 µg and 140.32 µg
  Amount of Active, Viable Skin: 33.94 µg and 4.55 µg and 56.67 µg and 8.44 µg and 19.24 µg and 10.30 µg
  Total TS # 3-15 + Viable Skin: 123.16 µg and 7.49 µg and 171.94 µg and 52.34 µg and 27.95 µg and 60.73 µg
  Total TS # 3-15 + Viable skin: 183.82 μg/cm2 and 11.18 μg/cm2 and 256.63 μg/cm2 and 78.12 μg/cm2 and 41.72 μg/cm2 and 10.89 μg/cm2
[2]
  Amount of Active, Receptor (transferred through the skin): 43 µg and 43.15 µg
  Amount of Active, TS # 1, 2: 73.77 µg
  Amount of Active, TS # 3-15: 42.06 µg
  Amount of Active, TS Total: 115.82 µg
  Amount of Active, Viable Skin: 23 µg and 23.07 µg
  Total TS # 3-15 + Viable Skin (amount in the skin): 65 µg and 65.13 µg
  Total TS # 3-15 + Viable skin: 97.21 μg/cm2
Iontophoretic System, 3%, 0.150 mA/cm^2, 30 minutes, mean
  total amount found in the skin (TS#1-15+ Viable skin): 139 µg
[3]
  mean amount found in the receptor: 2 µg
  mean amount found in the viable skin: 1 µg
  mean total amount found in tape strippings #1-15, compared with Iontophoretic System: in the same order of magnitude
